Source: patent publication US11844800B2, “Methods and compositions for predicting and preventing relapse of acute lymphoblastic leukemia” (Massachusetts Institute of Technology, priority 2019, dated 2023)

Key:
[1] = tested on: BCR-ABL mutant B-cell ALL; assay type: in vivo, mice; settings: 13 models, n=88 animals
[2] = tested on: B-cell ALL leukemic cells in bone marrow; experiment: Bone marrow involvement at MRD in B-cell ALL PDX mice after mono- or combination therapy; assay type: in vivo; settings: treated for 28 days
Protocol: Mice are treated with ponatinib alone, ponatinib in combination with QNZ (a TNF-alpha inhibitor), ponatinib in combination with fostamatinib (a proximal pre-BCR pathway inhibitor), ponatinib in combination with ibrutinib (a proximal pre-BCR pathway inhibitor), ponatinib in combination with duvelisib (a distal pre-BCR inhibitor), or ponatinib in combination with losmapimod (a p38 MAPK inhibitor) for 28 days. Bone marrow aspirates are obtained, and leukemic cells are isolated using conventional Ficoll centrifugation and FACS sorting methods. The leukemic cells are counted as bone marrow involvement at MRD, and it is compared to that before treatment.

| SMILES | Event free survival (remission/relapse, in words) [1] | bone marrow involvement at MRD [2] [%] |
| --- | --- | --- |
| O=C(Nc1ccc(OC(F)(F)Cl)cc1)c1cnc(N2CC[C@@H](O)C2)c(-c2cc[nH]n2)c1 [ABL001, asciminib] | significant earlier relapse |  |
| Cc1ccc(C(=O)Nc2ccc(CN3CCN(C)CC3)c(C(F)(F)F)c2)cc1C#Cc1cnc2cccnn12 [ponatinib] |  | 8 |
